# Data: patent publication US20210017607A1, “Methods of Predicting Responsiveness to Cancer Therapies” (The University of Chicago, priority 2019, published 2021)
# Key:
# [1] = tested on: Myc-CAP (STING^lo) tumors; assay: Myc-CAP syngeneic tumor growth; type: in vivo, mouse; settings: immunocompetent syngeneic mice
# Procedure: FIGS. 25A and 25B. […] (25A-25B) Myc-CAP (STING^lo) tumor-bearing syngeneic mice were treated with the indicated drug(s) until untreated tumors reached approx. 2500 mm^3. Tumor volume curves for duration of treatment are shown.
# FIGS. 26A-26D. […] Immunodeficient athymic nude (26A) and NOD-SCID (26B) mice were engrafted with Myc-CAP (STING^lo) tumors and treated with the indicated drug(s) until untreated tumors reached approx. 2000 mm^3. Tumor volume curves for duration of treatment are shown. For 26A-26B, n=3-4 mice per group. (26C-26D) Single-cell suspensions were generated from harvested tumors and analyzed by flow cytometry for the indicated immune cell populations and their activation states. Data are represented relative to CD45+ immune cells. For 26C-26D, n=3-5 animals per treatment group from 2 independent experiments. Significance/p-values were calculated by […].
# FIGS. 29A-29M. […] Myc-CAP cancer cells were treated with the indicated drugs singly or in combination for 36 hours. (29A) Cells were stained with anti-mouse specific p-γH2AX antibody and a fluorescently labeled secondary antibody for determination of DNA DSBs, which were quantified by confocal microscopy. (29B) Protein extracts from cells in 29A were analyzed for the indicated pharmacodynamic biomarkers by western blotting; (29C) Annexin V-PI staining was done to assess frequency of live cells (Annexin V^− PI^−) following drug treatment. (29D) Ultracentrifugation was utilized to purify microvesicles (MVs) from supernatants in treatment groups in (29A) and associated DNA DSBs was quantified by Nanodrop®. Independent experiments n=2. (29E) Ultracentrifugation was utilized to purify MVs from supernatants in indicated treatment groups in FIG. 17A, and associated DNA DSBs were quantified by Nanodrop®; n=2 independent experiments. (29F) Syngeneic mice were engrafted with Myc-CAP (STING^lo) cells, and tumors were harvested when the tumor volume reached 400 mm^3. Single cell suspensions of the tumors were treated with the indicated drug(s), in the presence or absence of GW4869 (MV biogenesis inhibitor). (29G) Bone marrow derived macrophage (BMDMs) were co-cultured for 30 hours with supernatants (−/+ exogenous 50 units of DNase I pre-treatment for 30 minutes) from Myc-CAP cells that were treated with the indicated drug(s) for 36 hours. (29H) cGAMP (10 μg/mL) was pre-incubated with 10 units of DNAse I or mock control for 30 minutes and then added to BMDMs for 30 hours. (29I-29L) STING^+/+/STING^−/− BMDMs were co-cultured for 36 hours with supernatants from Myc-CAP and B6-Myc cancer cells that were treated with the indicated drug(s) for 36 hours. Supernatants were collected from 29F-29L at the end of treatment and analyzed for IFNβ1 by ELISA. (29M) Myc-CAP (STING^lo) tumor-bearing mice were treated with the indicated drug(s) until tumors first reached approx. 2500 mm^3. For the degerelix/rucaparib/buparlisib combination, additional cohorts of mice underwent concomitant treatment with STING antagonist H-151 or GW4869. Tumor volume was recorded daily for duration of experiment. For in vitro experiments, n=2 independent experiments and for in vivo experiments n=3-4 animals /group.
# B6-Myc (STING^hi) tumors = assay: B6-Myc syngeneic tumor growth; type: in vivo, mouse; settings: immunocompetent syngeneic mice
# Excerpt: Tumor volume curves for duration of treatment are shown. […] Data are represented relative to CD45+ immune cells.
# Tumor volume curves for duration of treatment are shown.
smiles,measurement,setting,value
Nc1cc(C(F)(F)F)c(-c2cc(N3CCOCC3)nc(N3CCOCC3)n2)cn1 [buparlisib],tumor growth response,[1],not observed
CNCc1ccc(-c2[nH]c3cc(F)cc4c3c2CCNC4=O)cc1 [rucaparib],tumor growth response,B6-Myc (STING^hi) tumors,de novo resistance
same,tumor growth response,[1],not observed
"Cc1ccc2c(=O)c3cccc(CC(=O)O)c3oc2c1C [DMXAA, 5,6-Dimethylxanthenone-4-acetic Acid]",tumor growth response,B6-Myc (STING^hi) tumors,phenocopied
